The values that follow come from patent US7495027B2, “3-aryl-4-hydroxyfuranone compounds and the human and animal health use thereof” (Wyeth, priority 2003, dated 2009).

In brackets after ≈: the same amount, converted by molar mass. Some results are limits rather than exact numbers.

E. coli Uridine-diphosphate-N-acetylmuramoyl-L-alanine: D-glutamate liease, MurD, sequence (P14900 whole entry): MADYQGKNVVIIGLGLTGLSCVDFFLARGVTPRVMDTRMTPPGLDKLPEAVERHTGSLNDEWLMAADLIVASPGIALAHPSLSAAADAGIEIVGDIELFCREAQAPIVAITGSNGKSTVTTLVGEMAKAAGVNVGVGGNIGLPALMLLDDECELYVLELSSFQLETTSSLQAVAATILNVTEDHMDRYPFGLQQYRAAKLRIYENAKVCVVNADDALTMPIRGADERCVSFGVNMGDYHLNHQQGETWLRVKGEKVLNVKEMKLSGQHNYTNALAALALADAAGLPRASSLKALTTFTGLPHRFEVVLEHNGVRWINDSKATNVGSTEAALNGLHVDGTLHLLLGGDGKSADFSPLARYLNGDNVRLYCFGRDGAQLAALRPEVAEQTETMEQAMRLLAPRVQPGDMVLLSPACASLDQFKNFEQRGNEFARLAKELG
E. coli Uridine-diphosphate-N-acetvimuramoyl: L-alanine lipase, MurC, sequence (P17952 whole entry): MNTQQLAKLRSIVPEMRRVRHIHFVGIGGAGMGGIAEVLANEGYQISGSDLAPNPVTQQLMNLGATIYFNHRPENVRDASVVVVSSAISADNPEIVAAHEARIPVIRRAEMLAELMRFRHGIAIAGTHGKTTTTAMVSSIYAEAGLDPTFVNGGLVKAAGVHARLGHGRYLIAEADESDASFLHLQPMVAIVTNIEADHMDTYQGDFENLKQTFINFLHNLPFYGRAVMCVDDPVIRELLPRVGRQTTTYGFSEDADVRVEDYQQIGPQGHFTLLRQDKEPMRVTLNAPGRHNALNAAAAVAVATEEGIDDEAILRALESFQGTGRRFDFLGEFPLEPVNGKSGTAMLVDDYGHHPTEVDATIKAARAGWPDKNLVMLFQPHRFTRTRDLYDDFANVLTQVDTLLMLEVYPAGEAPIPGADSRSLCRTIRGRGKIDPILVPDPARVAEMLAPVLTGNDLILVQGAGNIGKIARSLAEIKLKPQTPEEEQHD

The subject of one series is Trichostrongylus columbriformis. Kind of series: In vivo efficacy against T. colubriformis in infected gerbils. Particulars: gerbils infected with T. colubriformis; single oral dose of 50 mg/kg by gavage; worm counts four days post-treatment; % mortality as compared to negative control. An outline of the steps: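 Gerbils infected with ~800 L3/mL larvae were treated one week later by gavage with a single 50 mg/kg oral dose in PEG 400:DMSO (1:2 v/v), 3 animals per group. Necropsy four days post-treatment, with worms counted under stereoscopes.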
`COc1cc(/C=C2\OC(=O)C(c3cccc(Cl)c3)=C2O)ccc1-c1ccccc1C(F)(F)F` gave a Mortality of 29.50%.
Take `N#Cc1ccc(C2=C(O)C(=Cc3ccc(-c4ccc(Cl)cc4)cc3)OC2=O)cc1` [R=H; R1=4-CN—C6H4; R2=4-(4′-Cl-biphenyl)]: the Mortality came out at 64.33%.
`N#Cc1ccc(C2=C(O)/C(=C/c3ccc(-c4ccc(C#N)cc4)cc3)OC2=O)cc1` [R=H; R1=4-CN—C6H4; R2=4-(4′CN-biphenyl)]: the Mortality stood at 88.60%.

System in another series: not given
Assay: not given
Conditions: not given
The melting point is the temperature of the solid-liquid transition. For `COc1ccc(C2=C(O)/C(=C/c3ccc(-c4ccccc4)cc3)OC2=O)cc1` [Example 9], the melting point is 266 to 269 °C.
Still for that read-out and setting: the result for `Cc1ccc(/C=C2\OC(=O)C(c3cccc(C(F)(F)F)c3)=C2O)s1` [Example 12] reads 249 to 251 °C; that for `Cc1ccc(/C=C2\OC(=O)C(c3ccc4ccccc4c3)=C2O)s1` [Example 41], 144 to 145 °C (dec.); that for `O=C1O/C(=C\c2cccc3ccccc23)C(O)=C1c1ccc2ccccc2c1` [Example 44], 205 to 207 °C.

A further series concerns enterococci. As to the kind of experiment: Minimum inhibitory concentration, microdilution broth method, enterococci. The conditions noted are these: Enterococcus faecalis, E. faecalis GC 2242; Mueller-Hinton broth, 18-22 hours at 35° C.; read-out: MIC E. faecalis GC 2242. It is filed as cell-based. An outline of the steps:
(§1)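 Broth microdilution per NCCLS M7-A5 (2000). Staphylococci and enterococci grown in Mueller-Hinton broth; streptococci in Mueller-Hinton broth with 5% horse blood (LHB). Panel includes recent clinical isolates resistant to methicillin, penicillin and/or vancomycin.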
(Broth dilution looks for growth in wells or tubes with falling amounts of substance.)
As a reminder, the MIC is the lowest concentration found to suppress growth. As for `COc1ccc(C2=C(O)/C(=C/c3ccc(-c4ccccc4)cc3)OC2=O)cc1` [Example 9], the minimum inhibitory concentration (MIC) worked out at 8 µg/mL (≈ 21.6 µM).
On the same count and under the same terms, the result for `Cc1ccc(/C=C2\OC(=O)C(c3cccc(C(F)(F)F)c3)=C2O)s1` [Example 12] reads 64 µg/mL (≈ 182 µM).
The same measure, in the same setting: the result for `Cc1ccc(/C=C2\OC(=O)C(c3ccc4ccccc4c3)=C2O)s1` [Example 41] reads 32 µg/mL (≈ 95.7 µM); that for `O=C1O/C(=C\c2cccc3ccccc23)C(O)=C1c1ccc2ccccc2c1` [Example 44], 8 µg/mL (≈ 22 µM).

The series is the same for the next values; noted with them: Enterococcus faecalis, E. faecalis GC 4555; Mueller-Hinton broth, 18-22 hours at 35° C.; read-out: MIC E. faecalis GC 4555.
On to `COc1ccc(C2=C(O)/C(=C/c3ccc(-c4ccccc4)cc3)OC2=O)cc1` [Example 9], for which the MIC was found to be 64 µg/mL (≈ 173 µM).
Still for that read-out and setting: the result for `Cc1ccc(/C=C2\OC(=O)C(c3cccc(C(F)(F)F)c3)=C2O)s1` [Example 12] reads greater than 128 µg/mL; that for `Cc1ccc(/C=C2\OC(=O)C(c3ccc4ccccc4c3)=C2O)s1` [Example 41], 64 µg/mL (≈ 191 µM); that for `O=C1O/C(=C\c2cccc3ccccc23)C(O)=C1c1ccc2ccccc2c1` [Example 44], 16 µg/mL (≈ 43.9 µM).

For the next series, the target named is E. coli UDP-N-acetylglucosamine enolpyruvoyl transferase, MurA (Escherichia coli, UniProt P0A749). Kind of series: biochemical. Particulars: (E) E. coli enzyme. An outline of the steps: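 Enzyme in 50 mM Tris/HCl pH 8.0 with 5 mM DTT and 20% glycerol was pre-incubated 10 min at 37° C with test compound in DMSO/water. Tris/BME and assay buffer then started the 1 hr, 37° C reaction, with a baseline 340 nm reading taken at start. Stop solution followed, and colour developed 30 minutes.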
E. coli UDP-N-acetylglucosamine enolpyruvoyl transferase, MurA, sequence (P0A749 whole entry): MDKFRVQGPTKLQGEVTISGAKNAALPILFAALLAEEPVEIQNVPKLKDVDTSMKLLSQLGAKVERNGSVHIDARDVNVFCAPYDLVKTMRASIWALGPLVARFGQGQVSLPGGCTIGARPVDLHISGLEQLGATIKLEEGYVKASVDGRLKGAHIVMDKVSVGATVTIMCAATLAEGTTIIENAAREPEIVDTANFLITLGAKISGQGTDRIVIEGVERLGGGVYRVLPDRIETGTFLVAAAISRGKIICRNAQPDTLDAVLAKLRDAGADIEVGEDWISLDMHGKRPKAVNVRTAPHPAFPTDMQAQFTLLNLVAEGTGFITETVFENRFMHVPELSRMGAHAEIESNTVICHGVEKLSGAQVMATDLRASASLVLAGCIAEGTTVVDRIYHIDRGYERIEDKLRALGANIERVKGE
The term IC50 denotes the midpoint of a concentration-inhibition curve. On to `COc1ccc(C2=C(O)/C(=C/c3ccc(-c4ccccc4)cc3)OC2=O)cc1` [Example 9], for which the IC50 was greater than 67.5 µM.
Same read-out and setting: the result for `Cc1ccc(/C=C2\OC(=O)C(c3cccc(C(F)(F)F)c3)=C2O)s1` [Example 12] reads greater than 71 µM.
Take `Cc1ccc(/C=C2\OC(=O)C(c3ccc4ccccc4c3)=C2O)s1` [Example 41]: the IC50 is greater than 74.8 µM.
Take `O=C1O/C(=C\c2cccc3ccccc23)C(O)=C1c1ccc2ccccc2c1` [Example 44]: the IC50 was 49.4 µM.

Another series has as its target E. coli Uridine-diphosphate-N-acetvimuramoyl: L-alanine lipase, MurC (Escherichia coli, UniProt P17952). As to the kind of experiment: Inhibitory activity against MurC (E. coli). The conditions noted are these: (E) E. coli enzyme; read-out: MurC IC50 (converted). In kind it is biochemical.
On to `COc1ccc(C2=C(O)/C(=C/c3ccc(-c4ccccc4)cc3)OC2=O)cc1` [Example 9], for which the IC50 was greater than 67.5 µM.
On the same count and under the same terms, the result for `Cc1ccc(/C=C2\OC(=O)C(c3cccc(C(F)(F)F)c3)=C2O)s1` [Example 12] reads 42.6 µM.
Still for that read-out and setting: the result for `Cc1ccc(/C=C2\OC(=O)C(c3ccc4ccccc4c3)=C2O)s1` [Example 41] reads 38.9 µM.
On to `O=C1O/C(=C\c2cccc3ccccc23)C(O)=C1c1ccc2ccccc2c1` [Example 44], for which the IC50 was 16.5 µM.

The next series deals with staphylococci. Kind of series: Minimum inhibitory concentration, microdilution broth method, staphylococci. It is filed as cell-based. Particulars: Staphylococcus aureus, S. aureus GC 1131; Mueller-Hinton broth, 18-22 hours at 35° C.; read-out: MIC S. aureus GC 1131. The method in brief:
as §1
Regarding `COc1ccc(C2=C(O)/C(=C/c3ccc(-c4ccccc4)cc3)OC2=O)cc1` [Example 9], the MIC amounted to 32 µg/mL (≈ 86.4 µM).
The same measure, in the same setting: the result for `Cc1ccc(/C=C2\OC(=O)C(c3cccc(C(F)(F)F)c3)=C2O)s1` [Example 12] reads 64 µg/mL (≈ 182 µM); that for `Cc1ccc(/C=C2\OC(=O)C(c3ccc4ccccc4c3)=C2O)s1` [Example 41], 32 µg/mL (≈ 95.7 µM).
Turning to `O=C1O/C(=C\c2cccc3ccccc23)C(O)=C1c1ccc2ccccc2c1` [Example 44], the MIC was found to be 4 µg/mL (≈ 11 µM).

The series is the same for the next values; noted with them: Staphylococcus aureus, S. aureus GC 4543; Mueller-Hinton broth, 18-22 hours at 35° C.; read-out: MIC S. aureus GC 4543.
As to `COc1ccc(C2=C(O)/C(=C/c3ccc(-c4ccccc4)cc3)OC2=O)cc1` [Example 9], the minimal inhibitory concentration (MIC) is greater than 128 µg/mL.
Still for that read-out and setting: the result for `Cc1ccc(/C=C2\OC(=O)C(c3cccc(C(F)(F)F)c3)=C2O)s1` [Example 12] reads 64 µg/mL (≈ 182 µM); that for `Cc1ccc(/C=C2\OC(=O)C(c3ccc4ccccc4c3)=C2O)s1` [Example 41], 64 µg/mL (≈ 191 µM); that for `O=C1O/C(=C\c2cccc3ccccc23)C(O)=C1c1ccc2ccccc2c1` [Example 44], 8 µg/mL (≈ 22 µM).

For a further series, the target named is E. coli Uridine-diphosphate-N-acetylmuramoyl-L-alanine: D-glutamate liease, MurD (Escherichia coli, UniProt P14900). Kind of series: biochemical. Particulars: (E) E. coli enzyme. The method in brief:
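Compound working solutions reach 100 μg/mL in 50 mM Tris/HCl (pH 8.5) after dilution of 10 mg/mL DMSO stocks; final level in the well not given here. Reaction buffer finals: 2 mM ATP, 50 mM MgCl2, 83 mM Tris/HCl, pH 8.0.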
The molecule `COc1ccc(C2=C(O)/C(=C/c3ccc(-c4ccccc4)cc3)OC2=O)cc1` [Example 9] came in with a concentration for half-maximal inhibition (IC50) greater than 67.5 µM.
Still for that read-out and setting: the result for `Cc1ccc(/C=C2\OC(=O)C(c3cccc(C(F)(F)F)c3)=C2O)s1` [Example 12] reads greater than 71 µM; that for `Cc1ccc(/C=C2\OC(=O)C(c3ccc4ccccc4c3)=C2O)s1` [Example 41], greater than 74.8 µM.
On the same count and under the same terms, the result for `O=C1O/C(=C\c2cccc3ccccc23)C(O)=C1c1ccc2ccccc2c1` [Example 44] reads greater than 68.6 µM.

System in a further series: not listed separately
As to the kind of experiment: Toxicity in treated gerbils (deaths or significant weight loss). It is filed as in vivo. On the set-up: key: +: Toxicity is indicated for those groups having one or more animals expired. Particulars: single oral dose of 50 mg/kg, groups of 3. As to the method:
In this evaluation, gerbils are infected with Trichostrongylus columbriformis infective larvae at a concentration of approximately 800 L3/mL. Larvae for gerbil infections are cultured from feces from sheep previously infected with T. colubriformis. One week post infection, test compounds are administered by gavage as a single oral dose of 50 mg/kg of body weight. For each group of 3 gerbils, 10 mg of test compound are dissolved in 2 mL of PEG 400:DMSO (1:2 v/v) and each animal is administered the test solution at a rate of 0.1 mL/10 g of body weight. […] All animals are observed daily for morbidity and mortality. Four days post-treatment, all animals are weighed and necropsied. Worm counts are conducted with the use of stereoscopes and counters.
For the molecule `COc1cc(/C=C2\OC(=O)C(c3cccc(Cl)c3)=C2O)ccc1-c1ccccc1C(F)(F)F`, the Toxicity result was “+”.
Same read-out and setting: the result for `N#Cc1ccc(C2=C(O)C(=Cc3ccc(-c4ccc(Cl)cc4)cc3)OC2=O)cc1` [R=H; R1=4-CN—C6H4; R2=4-(4′-Cl-biphenyl)] reads “+”.
Still for that read-out and setting: the result for `N#Cc1ccc(C2=C(O)/C(=C/c3ccc(-c4ccc(C#N)cc4)cc3)OC2=O)cc1` [R=H; R1=4-CN—C6H4; R2=4-(4′CN-biphenyl)] reads “+”.

For the next series, the target named is E. coli Enopyruvyl-UPD-N-acetylglucosamine reductase, Mur B (Escherichia coli, UniProt P08373). Kind of series: biochemical. Particulars: (E) E. coli enzyme; read-out: MurB IC50 (converted).
E. coli Enopyruvyl-UPD-N-acetylglucosamine reductase, Mur B, sequence (P08373 whole entry): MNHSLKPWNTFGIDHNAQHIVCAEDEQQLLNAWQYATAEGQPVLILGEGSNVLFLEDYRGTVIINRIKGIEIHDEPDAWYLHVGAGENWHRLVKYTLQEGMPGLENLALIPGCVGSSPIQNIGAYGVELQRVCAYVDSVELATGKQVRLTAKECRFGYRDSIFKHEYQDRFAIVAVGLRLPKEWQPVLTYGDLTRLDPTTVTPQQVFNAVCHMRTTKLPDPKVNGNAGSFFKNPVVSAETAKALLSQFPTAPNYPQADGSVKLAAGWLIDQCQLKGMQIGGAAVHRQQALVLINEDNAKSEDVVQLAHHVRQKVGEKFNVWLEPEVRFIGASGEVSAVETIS
Take `COc1ccc(C2=C(O)/C(=C/c3ccc(-c4ccccc4)cc3)OC2=O)cc1` [Example 9]: the IC50 was 43.2 µM.
The same measure, in the same setting: the result for `Cc1ccc(/C=C2\OC(=O)C(c3cccc(C(F)(F)F)c3)=C2O)s1` [Example 12] reads greater than 71 µM.
For `Cc1ccc(/C=C2\OC(=O)C(c3ccc4ccccc4c3)=C2O)s1` [Example 41], the IC50 is greater than 74.8 µM.
On the same count and under the same terms, the result for `O=C1O/C(=C\c2cccc3ccccc23)C(O)=C1c1ccc2ccccc2c1` [Example 44] reads 19.2 µM.

The next series has as its system Streptococci. As to the kind of experiment: Minimum inhibitory concentration, microdilution broth method, streptococci. It is filed as cell-based. The conditions noted are these: S. pneumo GC 1894; Mueller-Hinton broth with 5% horse blood, 18-22 hours at 35° C. The method in brief:
as §1
In turn, `COc1ccc(C2=C(O)/C(=C/c3ccc(-c4ccccc4)cc3)OC2=O)cc1` [Example 9] registered a minimal inhibitory concentration (MIC) of less than 0.125 µg/mL.
Same read-out and setting: the result for `Cc1ccc(/C=C2\OC(=O)C(c3cccc(C(F)(F)F)c3)=C2O)s1` [Example 12] reads 2 µg/mL (≈ 5.68 µM); that for `Cc1ccc(/C=C2\OC(=O)C(c3ccc4ccccc4c3)=C2O)s1` [Example 41], 32 µg/mL (≈ 95.7 µM); that for `O=C1O/C(=C\c2cccc3ccccc23)C(O)=C1c1ccc2ccccc2c1` [Example 44], 1 µg/mL (≈ 2.74 µM).
